{
  "source": "paper PMC9284842",
  "about": "“Allosteric activation of the metabolic enzyme GPD1 inhibits bladder cancer growth via the lysoPC-PAFR-TRPV2 axis” (Journal of Hematology & Oncology, 2022)",
  "key": {"GPD1 [1]": {"molecular_target": "T1, GPD1 (Homo sapiens, UniProt P21695)", "T1 construct": "purchased recombinant protein (Proteintech Ag4471); Red-NHS dye labelled for MST; source of enzyme in activity assay not restated", "T1 sequence (P21695 1-349)": "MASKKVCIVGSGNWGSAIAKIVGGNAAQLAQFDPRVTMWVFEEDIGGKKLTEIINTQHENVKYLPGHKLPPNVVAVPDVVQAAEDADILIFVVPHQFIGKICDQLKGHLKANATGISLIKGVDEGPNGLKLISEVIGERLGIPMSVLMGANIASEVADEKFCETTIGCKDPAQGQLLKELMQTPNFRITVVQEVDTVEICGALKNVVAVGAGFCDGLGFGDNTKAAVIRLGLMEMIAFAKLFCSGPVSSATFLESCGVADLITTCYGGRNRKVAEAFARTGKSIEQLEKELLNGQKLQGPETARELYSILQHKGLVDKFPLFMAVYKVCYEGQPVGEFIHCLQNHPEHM", "experiment": "NADH absorbance at […] nm, initial rate of DHAP reduction", "type": "biochemical", "conditions": "200 uM NADH, 8 mM DHAP, 1 uM GPD1, 20 mM TEA, 0.1 mg/mL BSA, I = 0.12 (NaCl); activator, proposed allosteric"}, "GPD1 [2]": {"molecular_target": "T1, GPD1", "experiment": "microscale thermophoresis (Monolith NT.[…], Hill fit)", "type": "binding"}},
  "data": [
    {"smiles": "COc1cc(O)c2c(c1)oc(=O)c1c3cc(O)c(O)cc3oc21", "note": "[wedelolactone]", "values": [
      {"measurement": "activation", "setting": "GPD1 [1]", "result": "wedelolactone (WE) from Bioactive Compound Library Plus in MedChemExpress LLC had substantial activity"},
      {"measurement": "Kd", "setting": "GPD1 [2]", "result": 505, "unit": "nM"}
    ]}
  ]
}
